Measurements as given in US20020192161A1, “Animal model for evaluating analgesics” (priority 2001, published 2002).
Read-outs that look alike come from different tables or passages of the source.

Columns and labels:
[1] = Bioavailability of oral ibuprofen crushed tablets in control rats; format: in vivo, Sprague-Dawley rats
Procedure: (§1) The animal models are Adult male Sprague-Dawley rats with body weight of 250-300 g, and which were cared for in accordance with the principles and guidelines of the Canadian Council of Animal Care. All rats were catheterized in the right jugular vein for sample collection.
(§2) The tablets were crushed gently and small pieces were administered into the stomach via a plastic tube followed by 0.5 mL tap water. […] They had free access to water.

[2] = Bioavailability of oral ibuprofen formulations in vagal-suppressed (propantheline-treated, Pain Model) rats; format: in vivo; settings: male, Sprague-Dawley, rat, plasma, 20 mg/kg
Procedure: as §1
An animal model having suppressed vagal properties were produced by administering (intraperitoneal injection) to the rats two 20 mg/kg doses of propantheline (test, n=6), an anticholinergic agent with known vagal suppressive properties, the first dose at 2 hours prior to administration of an NSAID, and the second at 1 hour prior.
as §2

[3] = cited from earlier work; for area under serum drug concentration AUC0-2h: 200 mg dose; for AUC0-2h: 600 mg dose
[4] = cited from earlier work
[5] = male, Sprague-Dawley, rat, plasma, po, 20 mg/kg

AUC (0-8) ([1]; control rats, 20 mg/kg ibuprofen oral as crushed tablets) | Cmax [1, 5] | Tmax [1, 5] | Cmax [2] | Tmax [2] | SMILES | delay in the mean time to peak concentration caused by surgery ([3]; 200 mg and 600 mg doses, dental surgery) | solubility in water [4] | area under serum drug concentration AUC0-2h ([3]; before dental extraction) | AUC0-2h ([3]; after dental extraction) | AUC0-2h ([3]; before dental extraction)
139 μg/h/mL^−1 | 40400 ng/mL | 16.8 min | 13800 ng/mL | 45 min | CC(C)Cc1ccc(C(C)C(=O)O)cc1 (racemic) [ibuprofen, (±)-2-(4-Isobutylphenyl)propionic acid] | two | less than 1 part of drug in 10,000 parts o |  |  | 
 |  |  |  |  | CC(C)Cc1ccc([C@@H](C)C(=O)O)cc1 [R-ibuprofen, R(−)-2-(4-isobutylphenyl)propionic acid] |  |  | 5.5 mg/L^−1/h | 5800 ng·h/mL | 14400 ng·h/mL
 |  |  |  |  | CC(C)Cc1ccc([C@H](C)C(=O)O)cc1 [S-ibuprofen, S(+)-2-(4-isobutylphenyl)propionic acid] |  |  | 5.6 mg/L^−1/h | 7200 ng·h/mL | 14200 ng·h/mL
